Test results: patent US20240238218A1, “[…] A […] ACTIVE COMPOUND AND METHOD OF PREPARATION THEREOF” (GW Research Limited, priority 2021, published 2024)

Experiments:
DBA/2 mice = assay: DBA/2 mouse audiogenic seizure test; type: in vivo; conditions: for Clonic convulsion, Latency (s) Median / Tonic extension, Latency (s) Median / Wild running, Latency (s) Median: bell maximum 60 seconds; for Mice with a rectal temperature below 35.0° C / Tremor noted (number of mice): group of 10
Excerpt: The DBA/2 audiogenic seizure test, which detects anticonvulsant activity, follows that described by Dürmüller et al. (NeuroReport, vol. 4, no. 6, pages 683-686, 1993).
60 male DBA/2 mice (3-4 weeks old) were included in the experiment (weight range 8-11 g at the beginning of the experiment). Animals were acclimatized to the test facility for 1 day after delivery and randomly housed in groups of 5 in macrolon cages on wood litter with free access to food and water.
Mice were individually transferred (at 3-5 minutes intervals) from the preparation room into an adjacent experimental room and body temperature was measured using a rectal thermometer. Immediately after, they were placed in a Plexiglas jar (Diameter=40 cm; Height=35 cm) mounted with an electric bell. Upon activating the bell, the occurrences and latencies to wild running fits, clonic and tonic seizures were measured. Deaths were also recorded. The bell was activated until a tonic seizure occured or for a maximum of 60 seconds.
The experiment included 6 groups (10 mice were studied per group). Experimenters were blinded to the treatment groups.
The test substance was evaluated at 4 doses, administered i.p. (10 mL/kg) 30 or 60 minutes before the test, and compared with a vehicle control group. Doses and pre-treatment times were based on previous pharmacokinetic data.
(§1) Test compound: Compound I dissolved in 5% ethanol, 10% Kolliphor HS15, 85% physiological saline.
(§2) Vehicle control: 5% ethanol, 10% Kolliphor HS15, 85% physiological saline.
Reference: Valproate (180 mg/kg), dissolved in 5% ethanol, 10% Kolliphor HS15, 85% physiological saline.
Quantitative data (latencies) with the test substance were analyzed by comparing treated groups with vehicle control using Kruskal-Wallis test followed by Dunn's multiple comparisons test. Quantitative data with the reference substance were analyzed using Mann-Whitney U test.
Quantal data (frequencies) were analyzed by comparing treated groups with vehicle control using Fisher's Exact Probability tests.

RjOrl: Swiss mice = assay: Mouse 6 Hz (44 mA) psychomotor seizure test; type: in vivo; conditions: for Forelimb clonus (mean ± s.e.m.): score 0-2
Excerpt: The 6 Hz Psychomotor Test, which detects anticonvulsant activity, follows that described by Brown et al. (J. Pharmacol. Exp. Ther. 107, 273-283, 1953).
Male RjOrl: Swiss mice, 5 weeks old, weighing 28-38 g at the beginning of the experiment. Animals were acclimatized to the test facility for at least 5 days after delivery and randomly housed in groups of 3-4 in macrolon cages on wood litter with free access to food and water.
Before transcorneal stimulation, a drop of tetracaine solution (2%) was applied on each eye of the mouse for local anesthesia. Between 1-10 minutes later, at the pre-treatment time specified for the test compound, the mice were administered a rectangular current (44 mA, rectangular pulse: 0.2 ms pulse width, 3 s duration, 6 Hz) via corneal electrodes connected to a constant current shock generator.
The number of seizures as reflected by forelimb clonus were recorded immediately after current administration. Forelimb clonus was scored as absent (0=no forelimb clonus), mild (1=clonus with one forelimb) and strong (2=clonus with both forelimbs).
[…] The experimenters were blinded to the treatment. The cages were randomly assigned to a treatment code, each designating one treatment group.
Compound I was administered intraperitoneally at 20 and 50 mg/kg, 30 minutes before the test, and at 100 and 200 mg/kg, 60 minutes before the test and were compared with the vehicle control (5% ethanol, 10% […], 85% physiological saline).
Valproate (300 mg/kg i.p.), administered 30 minutes before the test, was used as reference substance and was compared with the vehicle control (5% ethanol, 10% Kolliphor HS15, 85% physiological saline).
as §1, §2
Reference: Valproate (300 mg/kg), dissolved in 5% ethanol, 10% Kolliphor HS15, 85% physiological saline.
Data were assumed to be non-normally distributed based on validation data, therefore non-parametric tests were utilized. Quantitative data (scores) with the test substance were analyzed by comparing treated groups with the corresponding vehicle control using Kruskal-Wallis test with Dunn's multiple comparisons test when the Kruskal-Wallis Test was significant. Quantitative data with the reference substance was analysed using Mann-Whitney U test.

[1] = 20 mg/kg i.p., 30 min before the test
[2] = 50 mg/kg i.p., 30 min before the test
[3] = 100 mg/kg i.p., 60 min before the test
[4] = 100 mg/kg i.p., 60 min before the test, mice with rectal temperature below 35.0° C removed
[5] = 200 mg/kg i.p., 60 min before the test
[6] = 200 mg/kg i.p., 60 min before the test, mice with rectal temperature below 35.0° C removed
[7] = 20 mg/kg i.p., 30 minutes before the test
[8] = 50 mg/kg i.p., 30 minutes before the test
[9] = 100 mg/kg i.p., 60 minutes before the test
[10] = 200 mg/kg i.p., 60 minutes before the test

## C=C(C)[C@@H]1CC(O)C(C)=C[C@H]1c1c(O)cc(Br)cc1O (single isomer, unassigned) [Compound I]
DBA/2 mice; [1]
  Clonic convulsion, Latency, Compared with Vehicle (i.p.) %: +44%
  Clonic convulsion, Presence, %: 70%
  Clonic convulsion, Presence, Compared with Vehicle (i.p.) %: −30%
  Clonic convulsion, Presence, Total: 7/10
  Death, Presence, %: 20%
  Death, Presence, Compared with Vehicle (i.p.) %: −50%
  Death, Presence, Total: 2/10
  Tonic extension, Latency, Compared with Vehicle (i.p.) %: +461%
  Tonic extension, Presence, %: 40%
  Tonic extension, Presence, Compared with Vehicle (i.p.) %: −60%
  Tonic extension, Presence, Total: 4/10
  Wild running, Latency, Compared with Vehicle (i.p.) %: +55%
  Wild running, Presence, %: 80%
  Wild running, Presence, Compared with Vehicle (i.p.) %: −20%
  Wild running, Presence, Total: 8/10
  Clonic convulsion, Latency (s) Median: 9.5 s
  Tonic extension, Latency (s) Median: 60.0 s
  Wild running, Latency (s) Median: 5.1 s
DBA/2 mice; [2]
  Clonic convulsion, Latency, Compared with Vehicle (i.p.) %: +809%
  Clonic convulsion, Presence, %: 40%
  Clonic convulsion, Presence, Compared with Vehicle (i.p.) %: −60%
  Clonic convulsion, Presence, Total: 4/10
  Death, Presence, %: 0%
  Death, Presence, Compared with Vehicle (i.p.) %: −100%
  Death, Presence, Total: 0/10
  Tonic extension, Latency, Compared with Vehicle (i.p.) %: +461%
  Tonic extension, Presence, %: 0%
  Tonic extension, Presence, Compared with Vehicle (i.p.) %: −100%
  Tonic extension, Presence, Total: 0/10
  Wild running, Latency, Compared with Vehicle (i.p.) %: +924%
  Wild running, Presence, %: 50%
  Wild running, Presence, Compared with Vehicle (i.p.) %: −50%
  Wild running, Presence, Total: 5/10
  Clonic convulsion, Latency (s) Median: 60.0 s
  Tonic extension, Latency (s) Median: 60.0 s
  Wild running, Latency (s) Median: 33.8 s
DBA/2 mice; [3]
  Clonic convulsion, Latency, Compared with Vehicle (i.p.) %: +809%
  Clonic convulsion, Presence, Compared with Vehicle (i.p.) %: −100%
  Death, Presence, Compared with Vehicle (i.p.) %: −100%
  Tonic extension, Latency, Compared with Vehicle (i.p.) %: +461%
  Tonic extension, Presence, Compared with Vehicle (i.p.) %: −100%
  Wild running, Latency, Compared with Vehicle (i.p.) %: +1718%
  Wild running, Presence, Compared with Vehicle (i.p.) %: −100%
  Clonic convulsion, Latency (s) Median: 60.0 s
  Tonic extension, Latency (s) Median: 60.0 s
  Wild running, Latency (s) Median: 60.0 s
DBA/2 mice; [4]
  Clonic convulsion, Presence, %: 0%
  Clonic convulsion, Presence, Total: 0/6
  Death, Presence, %: 0%
  Death, Presence, Total: 0/6
  Tonic extension, Presence, %: 0%
  Tonic extension, Presence, Total: 0/6
  Wild running, Presence, %: 0%
  Wild running, Presence, Total: 0/6
DBA/2 mice; 100 mg/kg i.p.
  Mice with a rectal temperature below 35.0° C: Four mice
  Tremor noted (number of mice): 5 mice
DBA/2 mice; [5]
  Clonic convulsion, Latency, Compared with Vehicle (i.p.) %: +809%
  Clonic convulsion, Presence, Compared with Vehicle (i.p.) %: −80%
  Death, Presence, Compared with Vehicle (i.p.) %: −100%
  Tonic extension, Latency, Compared with Vehicle (i.p.) %: +461%
  Tonic extension, Presence, Compared with Vehicle (i.p.) %: −100%
  Wild running, Latency, Compared with Vehicle (i.p.) %: +1718%
  Wild running, Presence, Compared with Vehicle (i.p.) %: −80%
  Clonic convulsion, Latency (s) Median: 60.0 s
  Tonic extension, Latency (s) Median: 60.0 s
  Wild running, Latency (s) Median: 60.0 s
DBA/2 mice; [6]
  Clonic convulsion, Presence, %: 33%
  Clonic convulsion, Presence, Total: 2/6
  Death, Presence, %: 0%
  Death, Presence, Total: 0/6
  Tonic extension, Presence, %: 0%
  Tonic extension, Presence, Total: 0/6
  Wild running, Presence, %: 33%
  Wild running, Presence, Total: 2/6
DBA/2 mice; 200 mg/kg i.p.
  Mice with a rectal temperature below 35.0° C: Four mice
  Tremor noted (number of mice): 3 mice
DBA/2 mice; any doses (20, 50, 100, 200 mg/kg i.p.)
  Effect on the number of deaths: did not affect the number of deaths at any doses
RjOrl: Swiss mice; [7]
  Forelimb clonus, Compared with Vehicle B (i.p.) %: 0%
  Forelimb clonus (mean ± s.e.m.): 0.8 ± 0.1
RjOrl: Swiss mice; [8]
  Forelimb clonus, Compared with Vehicle B (i.p.) %: −38%
  Forelimb clonus (mean ± s.e.m.): 0.5 ± 0.1
RjOrl: Swiss mice; 100 mg/kg i.p.
  Slight sedation (mice affected): Two mice out of the 13
RjOrl: Swiss mice; [9]
  Forelimb clonus, Compared with Vehicle B (i.p.) %: −88%
  Forelimb clonus (mean ± s.e.m.): 0.1 ± 0.1
RjOrl: Swiss mice; 200 mg/kg i.p.
  Tremor (mice affected): Two mice out of the 14
RjOrl: Swiss mice; 200 mg/kg i.p., 14 mice
  Sedation (mice affected): all mice showed slight (12 mice) to moderate (2 mice) sedation
RjOrl: Swiss mice; [10]
  Forelimb clonus, Compared with Vehicle B (i.p.) %: −63%
  Forelimb clonus (mean ± s.e.m.): 0.3 ± 0.1
